Here are results for nine molecules from ChEMBL document CHEMBL1201862, “PubChem BioAssay data set” (2004).

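A five-concentration, 48-hour dose response in 96-well plates underlies each endpoint, interpolated linearly between surrounding concentrations. The concentration for 50% growth inhibition is given as GI50.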 Activity calls are given as the source filed them. No stated cut-off is given here; in the data, active = GI50 up to about 1.1 µM and inactive = higher.

Some test systems named below: 786-0; OVCAR-3; SK-MEL-2; SK-MEL-5; ACHN; CAKI-1; UACC-257; A498; SK-OV-3; OVCAR-4; EKVX; TK-10; HCT-116; MOLT-4; NCI-H226; SK-MEL-28.
Assay in all cases: growth of human tumour cells (NCI), 48 h

For the molecule `CC1=CC2=C(C)C3(CC3)[C@@](C)(O)C(=O)C2=C1`, the GI50 in the assay with 786-0 is 0.217 µM (active); with OVCAR-3, 0.182 µM (active); with SK-MEL-2, 0.191 µM (active); with SK-MEL-5, 0.122 µM (active); in the assay with ACHN, 0.176 µM (active); in the assay with CAKI-1, 0.269 µM (active). Also, the GI50 in the assay with UACC-257 was 0.237 µM (active); in the assay on A498 it was 0.241 µM (active); with SK-OV-3 it was 0.293 µM (active); in the assay on OVCAR-4, 0.174 µM (active); in the assay with EKVX it was 0.535 µM (active); in the assay on TK-10 it was 0.329 µM (active). Also, the GI50 with HCT-116 is 0.171 µM (active); in the assay with MOLT-4, > 1 µM (active); with NCI-H226 it was 0.231 µM (active); with SK-MEL-28 it was 0.194 µM (active).
In the case of `O=C1OC2C(O)COC2(O)C1(O)Cc1c[nH]c2ccccc12.O=C1OC2C(O)COC2(OCc2c[nH]c3ccccc23)C1O` (centres undefined), the GI50 in the assay with 786-0, with OVCAR-3, with SK-MEL-2, with SK-MEL-5, in the assay with CAKI-1 and with UACC-257 was > 100 µM (inactive) each time. The GI50 in the assay with A498, in the assay on SK-OV-3, with OVCAR-4, with EKVX, in the assay with TK-10 and in the assay on HCT-116 was > 100 µM (inactive) throughout. Also, the GI50 in the assay with MOLT-4 and with NCI-H226 was > 100 µM (inactive) each time.
As to `O=C(O)COc1ccc(C(=O)/C(SS/C(C(=O)c2ccc(OCC(=O)O)c(Cl)c2Cl)=C2\C=C(c3ccccc3Cl)SS2)=C2/C=C(c3ccccc3Cl)SS2)c(Cl)c1Cl`, the GI50 with 786-0 is 19.8 µM (inactive); in the assay with OVCAR-3 it was 17.9 µM (inactive); in the assay with SK-MEL-2, 23.2 µM (inactive); in the assay on SK-MEL-5, 18.3 µM (inactive); with ACHN, 23.5 µM (inactive); in the assay with CAKI-1, 39.4 µM (inactive). In addition, the GI50 with UACC-257 was 48.8 µM (inactive); in the assay on A498, 34.7 µM (inactive); in the assay on SK-OV-3, 44.1 µM (inactive); in the assay with OVCAR-4, 19.8 µM (inactive); in the assay with EKVX, 40.6 µM (inactive); in the assay on TK-10 it was 33.3 µM (inactive). Also, the GI50 in the assay on HCT-116 is 18 µM (inactive); with MOLT-4, 21.9 µM (inactive); with NCI-H226, 17.7 µM (inactive); in the assay on SK-MEL-28 it was 20.6 µM (inactive).
Take `Cc1nc2c(s/c(=N\N)n2-c2ccccc2)c(=O)[nH]1`: the GI50 in the assay on 786-0, with OVCAR-3, with SK-MEL-2, in the assay on SK-MEL-5, in the assay on ACHN and with CAKI-1 was > 100 µM (inactive) throughout. Further, the GI50 in the assay on UACC-257, with A498, in the assay with SK-OV-3, with OVCAR-4, with EKVX and with TK-10 was > 100 µM (inactive) throughout. Also, the GI50 in the assay with HCT-116, with MOLT-4, in the assay with NCI-H226 and in the assay on SK-MEL-28 was > 100 µM (inactive) each time.
In the case of `O=C(NO)C(=O)Nc1ccc(Cl)cc1[N+](=O)[O-]`, the GI50 in the assay on 786-0 is > 100 µM (inactive); with OVCAR-3, > 100 µM (inactive); in the assay on SK-MEL-2, > 100 µM (inactive); in the assay with SK-MEL-5, > 100 µM (inactive); in the assay with ACHN, > 100 µM (inactive); with CAKI-1 it was 66.5 µM (inactive). For the same molecule, the GI50 in the assay with UACC-257 is > 100 µM (inactive); in the assay with A498, > 100 µM (inactive); with SK-OV-3, > 100 µM (inactive); in the assay on OVCAR-4, > 100 µM (inactive); in the assay on EKVX, 33.9 µM (inactive); with TK-10, > 100 µM (inactive). Moreover, the GI50 in the assay on HCT-116, with MOLT-4, in the assay with NCI-H226 and with SK-MEL-28 was > 100 µM (inactive) throughout.
On to `O=c1c2ccccc2nc(-c2ccccc2)n1NC(=S)Nc1ccccc1`, for which the GI50 in the assay on 786-0 was > 100 µM (inactive); in the assay with SK-MEL-2, > 100 µM (inactive); with SK-MEL-5 it was 89.1 µM (inactive); with ACHN, > 100 µM (inactive); with CAKI-1 it was > 100 µM (inactive); in the assay with UACC-257, > 100 µM (inactive). Further, the GI50 in the assay on A498, in the assay on SK-OV-3, in the assay with OVCAR-4, in the assay on TK-10, in the assay with HCT-116 and with MOLT-4 was > 100 µM (inactive) in each case. The GI50 with NCI-H226 is > 100 µM (inactive); in the assay with SK-MEL-28, 34.8 µM (inactive).
As for `Cn1c(=O)n(C2(C)C[Se]C2)c2ccccc21`, the GI50 with 786-0, with SK-MEL-2, in the assay on SK-MEL-5, in the assay with ACHN, in the assay with CAKI-1 and in the assay with UACC-257 was > 100 µM (inactive) each time. Further, the GI50 in the assay with A498, in the assay on SK-OV-3, in the assay with OVCAR-4, in the assay with EKVX, with TK-10 and in the assay on HCT-116 was > 100 µM (inactive) throughout. The GI50 with MOLT-4, with NCI-H226 and in the assay with SK-MEL-28 was > 100 µM (inactive) each time.
As for `Nc1nc(N)c2ncn(CC(CO)CC(c3ccccc3)P(=O)(O)O)c2n1` (centres undefined), the GI50 in the assay with OVCAR-3, in the assay on SK-MEL-2, with SK-MEL-5, in the assay with ACHN, in the assay on CAKI-1 and in the assay on UACC-257 was > 100 µM (inactive) each time. Besides, the GI50 in the assay on A498, in the assay with SK-OV-3, with TK-10, in the assay on HCT-116, with MOLT-4 and in the assay on NCI-H226 was > 100 µM (inactive) in each case. In addition, the GI50 in the assay on SK-MEL-28 was > 100 µM (inactive).
With `CCOC(=O)C(C(=O)OCC)P(=S)(S)c1ccccc1` (centres undefined), the GI50 in the assay on 786-0, in the assay on SK-MEL-2, in the assay with SK-MEL-5, in the assay with ACHN, in the assay with CAKI-1 and in the assay on UACC-257 was > 100 µM (inactive) in each case. The GI50 with A498, with SK-OV-3, with OVCAR-4, with EKVX, in the assay with TK-10 and with MOLT-4 was > 100 µM (inactive) each time. Besides, the GI50 in the assay on NCI-H226 and with SK-MEL-28 was > 100 µM (inactive) each time.
